According to patent publication US20080120039A1, “HORMONE AND DRUG CONCENTRATIONS IN THE PORTAL VEIN AND HEPATIC SINUSOIDS” (Entelos, Inc., priority 2005, published 2008):
Where two headings read alike, the source gives them in different places.

Legend:
[1] = pigs; cited from earlier work
[2] = cited from earlier work
[3] = sheep; cited from earlier work
[4] = rats; cited from earlier work
[5] = reported; cited from earlier work
[6] = Glucagon infusions with somatostatin; metabolic clearance of glucagon; format: in vivo, human
Text: FIGS. 3A and 3B provide graphs of plasma glucagon concentrations during different glucagon infusion rates in human subjects. FIG. 3A illustrates data from studies that report lower glucagon concentrations during glucagon infusions (Chhibber, et al. Metabolism 49(1):39-46 (2000) and Matsuda, et al. Metabolism 51(9):1111-1119 (2002)) and FIG. 3B illustrates data from studies that report higher glucagon concentrations during glucagon infusions (Nielsen, et al., Diabetes 46(12):2007-2016 (1997) and Andrews, et al., J. Clin. Endocrinol. Metab. 88(1):285-291 (2003)). The equation for the regression line in FIG. 3A is y=0.41x+60.15 with r^2=0.96 and the regression line in FIG. 3B is y=x+69.5 with r=0.97.
Different research groups report considerably different glucagon concentrations in response to plasma glucagon infusions. In FIG. 3A, the regression line yields m=0.00041 min/ml, whereas for the regression line for 3B yields m=0.001 min/ml. These differences lead to considerable differences in predicted portal glucagon concentrations in both fasted and fed conditions, as described below. The MCR for glucagon has been reported to be between 7-14 ml/kg/min; taking the reciprocal of the MCR for a 70 kg individual gives m=0.001-0.002 min/ml. As a result of the variability in the reported measurements for this parameter, two different possibilities are considered in the analyses: one where m=0.00041 and another where m=0.001 min/ml.

[7] = dogs; cited from earlier work
[8] = cited from earlier work; remark: listed apart in the source
[9] = healthy patients; cited from earlier work

Substance	hepatic glucagon extraction, f [1]	hepatic glucagon extraction in humans ([2]; Felig et al.)	portal glucagon concentration relative to systemic plasma ([2]; reported in the literature)	hepatic glucagon extraction, f [3]	hepatic glucagon extraction, f [4]	MCR for glucagon [5] [mL/min/kg]	m as reciprocal of reported MCR ([6]; for a 70 kg individual) [min/mL]	m (slope of plasma glucagon concentration versus infusion rate) ([6]; studies with higher glucagon concentrations (FIG. 3B))	m (slope of plasma glucagon concentration versus infusion rate) ([6]; studies with lower glucagon concentrations (FIG. 3A), about twice the somatostatin rate)	hepatic glucagon extraction, f [7]	fractional extraction of insulin by the liver, f ([8]; most estimates)	fractional extraction of insulin by the liver, f ([8]; portal catheterization study and mathematical models based on insulin and c-peptide concentrations)	fractional extraction of insulin by the liver, f ([8]; splanchnic balance studies)	m as reciprocal of reported MCR (for a 70 kg patient) [min/mL]	m (slope of steady-state systemic plasma concentration versus exogenous infusion rate; reciprocal of MCR) (insulin infusions with somatostatin, healthy individuals, studies of FIG. 2, 70 kg individual)	metabolic clearance rate (MCR) of insulin [9] [mL/min/kg]
glucagon	≈ 0.1	little or no hepatic glucagon extraction	1.3-3.0 times higher	≈ 0.07	≈ 0.5	7 to 14	0.001 to 0.002	0.001 min/ml and ≈ 0.001 min/ml	0.00041 min/ml and ≈ 0.0004 min/ml	≈ 0.2	–	–	–	–	–	–
insulin	–	–	–	–	–	–	–	–	–	–	0.5-0.7	≈ 0.5	0.7	0.0005 to 0.001	0.0007 min/ml and approximately 0.0007 min/ml	13 to 27
